Laboratory results reported in ChEMBL document CHEMBL1123051, “In the search for new anticancer drugs. 13. Phosphonic and phosphinic analogues of ornithine” (1985).
The source made the active and inactive calls. No cut-off for these calls is given here.

Key:
Mus musculus [1] = assay: Compound was tested against P388 Leukemia cells in mouse at the dose of 150 mg/kg ip, activity expressed as T/C; assay type: functional
[2] = biological target: T1, Ornithine decarboxylase (Rattus norvegicus) (UniProt P09057); assay: Compound was tested for its inhibition against ornithine decarboxylase from rat liver at low concentration; NA means not active
T1 sequence (whole entry): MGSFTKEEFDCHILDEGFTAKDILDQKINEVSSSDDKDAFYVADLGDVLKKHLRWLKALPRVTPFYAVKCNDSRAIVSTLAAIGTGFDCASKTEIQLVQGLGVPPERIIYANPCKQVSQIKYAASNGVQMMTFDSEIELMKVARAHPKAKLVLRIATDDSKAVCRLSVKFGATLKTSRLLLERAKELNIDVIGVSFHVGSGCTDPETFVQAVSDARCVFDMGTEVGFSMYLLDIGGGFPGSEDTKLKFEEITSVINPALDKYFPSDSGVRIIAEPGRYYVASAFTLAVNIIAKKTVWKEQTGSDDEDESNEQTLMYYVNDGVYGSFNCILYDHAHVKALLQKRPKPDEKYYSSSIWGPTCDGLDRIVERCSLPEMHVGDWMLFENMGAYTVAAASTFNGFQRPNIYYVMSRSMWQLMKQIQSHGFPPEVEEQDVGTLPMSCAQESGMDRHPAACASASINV

Mus musculus [3] = assay: Compound was tested against P388 Leukemia cells in mouse at the dose of 50 mg/kg ip, activity expressed as T/C; assay type: functional

| Compound | T/C (Mus musculus [1]) | Activity [2] | T/C (Mus musculus [3]) |
| --- | --- | --- | --- |
| CCP(=O)(O)C(C)(N)CCCN.Cl (stereo unspecified) | 98 | inactive | 98 |
| CCP(=O)(O)C(N)CCCN.Cl (stereo unspecified) | 100 | inactive | 100 |
